# Test system: HFD/L-NAME mice
# Experiment: HFD/L-NAME HFpEF mouse model, TYA-11018 versus Empagliflozin for 9 weeks
# Assay type: in vivo
# Settings: TYA-11018 15 mg/kg, Empagliflozin 10 mg/kg
# Description: After HFpEF phenotypes were established, mice received 15 mg/kg TYA-11018 or 10 mg/kg Empagliflozin, or vehicle orally once daily for 9 weeks. Health monitoring was performed weekly with body weights recorded. Glucose tolerance test was performed after 1st dose. Cardiac function was recorded by echocardiography after treatment for 9 weeks. End diastolic pressure (EDP) was measured by PV-Loop at terminal at 9 weeks after dosing.
# Animals: Cohort of mice with established HFpEF phenotypes and age/sex matched wild type controls were used for dosing study. […] After acclimation for 1 week, one group of mice was fed with high fat diet containing 0.07% L-NAME (LabDiet 5G5V, St Louis, MO) for 15 weeks. The control group of mice were fed with normal chow (LabDiet 5053, St Louis, MO). […] Animals were housed in an animal research facility in accordance with the National Research Council of the National Academies guidelines for the care and use of laboratory animals.
# A second group of mice was fed with standard chow for controls.
# Transthoracic echocardiography was performed using a VisualSonics Vevo 2100 system equipped with MS400 transducer (Visual Sonics, Toronto, ON). LVEF and other indices of systolic function were obtained from short-axis M-mode scans at the midventricular level, as indicated by the presence of papillary muscles, in conscious, gently restrained mice. […]
# Intraperitoneal glucose-tolerance tests were performed by injection of glucose (2 g/kg in saline) after 6 hour fasting (from 7 a.m. to 1 p.m.). Tail blood glucose levels (mg/dL) were measured by AimStrip Plus blood glucose strips used with the AimStrip Plus blood glucose monitoring system (Germaine Laboratories, San Antonio, TX) at 0 (baseline, before glucose dose), 15, 30, 45, 60 and 120 minutes after glucose administration.
# The trachea was exposed by a midline incision from the base of the throat to just above the clavicle. […] The hemodynamic parameters were then recorded in close-chest mode. […]
smiles,measurement,value
"OC[C@H]1O[C@@H](c2ccc(Cl)c(Cc3ccc(O[C@H]4CCOC4)cc3)c2)[C@H](O)[C@@H](O)[C@@H]1O [Empagliflozin, empagliflozin]",E/A ratio,decreased
same,E/e′ ratio,decreased
same,end diastolic pressure,reduced end diastolic pressure
